From PubChem BioAssay AID330 (DTP/NCI, 2004)
Several values for one entry are separate records, joined by “and”; a condition that tells them apart may be missing. Equal values may be shown once. Toxic doses and inconclusive results are not listed. Peptide text beside a SMILES is read from it. * marks the point of attachment. Cbz = O=C(OCc1ccccc1)*

Test system: P388 leukemia ip, CD2F1 mice, survival T/C
Assay: NCI In Vivo Anticancer Drug Screen. Data for tumor model P388 Leukemia (intraperitoneal) in CD2F1 (CDF1) mice
Conditions: endpoint: median survival time, higher = longer survival
How it was run: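 Mice carrying the transplanted tumor received test compound or vehicle. Survival was recorded in each group, and the value is the treated-group measurement divided by that of the vehicle-treated control group.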

[1] = dose: 100.0 mg/kg/injection, schedule: Q04DX003 (ip), vehicle: Klucel (hydroxypropylcellulose) (HPC)
[2] = dose: 200.0 mg/kg/injection, schedule: Q04DX003 (ip), vehicle: Klucel (hydroxypropylcellulose) (HPC)
[3] = dose: 400.0 mg/kg/injection, schedule: Q04DX003 (ip), vehicle: Klucel (hydroxypropylcellulose) (HPC)
[4] = dose: 50.0 mg/kg/injection, schedule: Q01DX005 (ip), vehicle: saline with Tween-80
[5] = dose: 100.0 mg/kg/injection, schedule: Q01DX005 (ip), vehicle: saline with Tween-80
[6] = dose: 200.0 mg/kg/injection, schedule: Q01DX005 (ip), vehicle: saline with Tween-80
[7] = dose: 50.0 mg/kg/injection, schedule: Q01DX005 (ip), vehicle: Klucel (hydroxypropylcellulose) (HPC)
[8] = dose: 100.0 mg/kg/injection, schedule: Q01DX005 (ip), vehicle: Klucel (hydroxypropylcellulose) (HPC)
[9] = dose: 200.0 mg/kg/injection, schedule: Q01DX005 (ip), vehicle: Klucel (hydroxypropylcellulose) (HPC)
[10] = dose: 50.0 mg/kg/injection, schedule: Q01DX009 (ip), vehicle: Klucel (hydroxypropylcellulose) (HPC)
[11] = dose: 100.0 mg/kg/injection, schedule: Q01DX009 (ip), vehicle: Klucel (hydroxypropylcellulose) (HPC)
[12] = dose: 60.0 mg/kg/injection, schedule: Q01DX005 (ip), vehicle: Klucel (hydroxypropylcellulose) (HPC)
[13] = dose: 120.0 mg/kg/injection, schedule: Q01DX005 (ip), vehicle: Klucel (hydroxypropylcellulose) (HPC)
[14] = dose: 240.0 mg/kg/injection, schedule: Q01DX005 (ip), vehicle: Klucel (hydroxypropylcellulose) (HPC)
[15] = dose: 60.0 mg/kg/injection, schedule: Q01DX005 (ip), vehicle: saline
[16] = dose: 120.0 mg/kg/injection, schedule: Q01DX005 (ip), vehicle: saline
[17] = dose: 50.0 mg/kg/injection, schedule: Q01DX009 (ip), vehicle: saline with Tween-80
[18] = dose: 100.0 mg/kg/injection, schedule: Q01DX009 (ip), vehicle: saline with Tween-80

Structure (SMILES): CC(O)C(NC(=O)C(Cc1ccc(O)cc1)NC(=O)OCc1ccccc1)C(=O)O (stereo not drawn) (Cbz-Tyr-Thr-OH; configuration not given here)
- T/C (dose: 50.0 mg/kg/injection, schedule: Q01DX005 (ip), vehicle: suspension in saline): 105 % of control
- T/C (dose: 100.0 mg/kg/injection, schedule: Q01DX005 (ip), vehicle: suspension in saline): 96 % of control
- T/C (dose: 200.0 mg/kg/injection, schedule: Q01DX005 (ip), vehicle: suspension in saline): 111 % of control

Structure (SMILES): [N-]=[N+]=CC(=O)c1ccc(Cl)cc1
- T/C [1]: 108 % of control
- T/C [2]: 115 % of control
- T/C [3]: 107 % of control

Structure (SMILES): CC(CCC(=O)O)(c1ccc(OC(=O)Nc2ccccc2Cl)cc1)c1ccc(OC(=O)Nc2ccccc2Cl)cc1
- T/C [4]: 118 % of control
- T/C [5]: 102 % of control
- T/C [6]: 109 % of control

Structure (SMILES): O=C(CNc1ccc(Cl)cc1)c1ccc(Cl)cc1
- T/C [7]: 107 % of control
- T/C [8]: 99 % of control
- T/C [9]: 90 % of control

Structure (SMILES): Cc1ccc(S(=O)(=O)N/N=C\C(O)C(O)C(O)CO)cc1 (stereo unspecified)
- T/C [10]: 114 % of control
- T/C [11]: 106 % of control
- T/C (dose: 200.0 mg/kg/injection, schedule: Q01DX009 (ip), vehicle: Klucel (hydroxypropylcellulose) (HPC)): 107 % of control
- T/C (dose: 400.0 mg/kg/injection, schedule: Q01DX009 (ip), vehicle: Klucel (hydroxypropylcellulose) (HPC)): 104 % of control

Structure (SMILES): C=CC(C)(CCC1C(C)=CCC2C(C)(C)CCCC12C)OC1OC(C)C(O)C(O)C1O (stereo unspecified)
- T/C (dose: 19.0 mg/kg/injection, schedule: Q01DX005 (ip), vehicle: Klucel (hydroxypropylcellulose) (HPC)): 102 % of control
- T/C (dose: 20.0 mg/kg/injection, schedule: Q01DX005 (ip), vehicle: Klucel (hydroxypropylcellulose) (HPC)): 97 % of control
- T/C (dose: 21.0 mg/kg/injection, schedule: Q01DX005 (ip), vehicle: Klucel (hydroxypropylcellulose) (HPC)): 100 % of control
- T/C (dose: 38.0 mg/kg/injection, schedule: Q01DX005 (ip), vehicle: Klucel (hydroxypropylcellulose) (HPC)): 101 % of control
- T/C (dose: 40.0 mg/kg/injection, schedule: Q01DX005 (ip), vehicle: Klucel (hydroxypropylcellulose) (HPC)): 103 % of control
- T/C (dose: 42.0 mg/kg/injection, schedule: Q01DX005 (ip), vehicle: Klucel (hydroxypropylcellulose) (HPC)): 98 % of control
- T/C (dose: 76.0 mg/kg/injection, schedule: Q01DX005 (ip), vehicle: Klucel (hydroxypropylcellulose) (HPC)): 98 % of control
- T/C (dose: 80.0 mg/kg/injection, schedule: Q01DX005 (ip), vehicle: Klucel (hydroxypropylcellulose) (HPC)): 98 % of control
- T/C (dose: 84.0 mg/kg/injection, schedule: Q01DX005 (ip), vehicle: Klucel (hydroxypropylcellulose) (HPC)): 102 % of control
- T/C (dose: 152.0 mg/kg/injection, schedule: Q01DX005 (ip), vehicle: Klucel (hydroxypropylcellulose) (HPC)): 108 % of control
- T/C (dose: 160.0 mg/kg/injection, schedule: Q01DX005 (ip), vehicle: Klucel (hydroxypropylcellulose) (HPC)): 93 % of control
- T/C (dose: 168.0 mg/kg/injection, schedule: Q01DX005 (ip), vehicle: Klucel (hydroxypropylcellulose) (HPC)): 98 % of control

Structure (SMILES): Cc1no[n+]([O-])c1C(N)=O
- T/C (dose: 60.0 mg/kg/injection, schedule: Q01DX005 (ip), vehicle: saline with Tween-80): 101 % of control
- T/C (dose: 120.0 mg/kg/injection, schedule: Q01DX005 (ip), vehicle: saline with Tween-80): 100 % of control
- T/C (dose: 240.0 mg/kg/injection, schedule: Q01DX005 (ip), vehicle: saline with Tween-80): 102 % of control

Structure (SMILES): CC(=O)Nc1cccc2c1C(=O)c1nccnc1C2=O
- T/C (dose: 12.5 mg/kg/injection, schedule: Q04DX002 (ip), vehicle: Klucel + Tween-80): 99 % of control
- T/C (dose: 25.0 mg/kg/injection, schedule: Q04DX002 (ip), vehicle: Klucel + Tween-80): 98 % of control
- T/C (dose: 50.0 mg/kg/injection, schedule: Q04DX002 (ip), vehicle: Klucel + Tween-80): 91 % of control

Structure (SMILES): Clc1ccc2c(NCCCC3CCCN4CCCCC34)ccnc2c1 (stereo unspecified)
- T/C [7]: 99 % of control
- T/C [8]: 98 % of control

Structure (SMILES): CCN(CC)C1=C(C)C(C(=O)OC)=C(C(=O)OC)C12c1ccccc1-c1ccccc12
- T/C [12]: 92 % of control
- T/C [13]: 92 % of control
- T/C [14]: 86 % of control

Structure (SMILES): [O-][n+]1nn(CC(O)CCl)c2ccccc21 (stereo unspecified)
- T/C [4]: 102 % of control
- T/C [5]: 102 % of control
- T/C (dose: 100.0 mg/kg/injection, schedule: Q04DX003 (ip), vehicle: saline with Tween-80): 103 % of control
- T/C [6]: 100 % of control
- T/C (dose: 200.0 mg/kg/injection, schedule: Q04DX003 (ip), vehicle: saline with Tween-80): 98 % of control
- T/C (dose: 400.0 mg/kg/injection, schedule: Q04DX003 (ip), vehicle: saline with Tween-80): 93 % of control

Structure (SMILES): Nc1ccn(C2CC(N)C(CO)O2)c(=O)n1 (stereo unspecified)
- T/C (dose: 12.5 mg/kg/injection, schedule: Q01DX005 (ip), vehicle: water): 120 % of control
- T/C (dose: 25.0 mg/kg/injection, schedule: Q01DX005 (ip), vehicle: water): 118 % of control and 123 % of control
- T/C (dose: 200.0 mg/kg/injection, schedule: Q01DX005 (ip), vehicle: water): 153 % of control and 154 % of control

Structure (SMILES): COC1=C(OC)C(=O)C(N(C)C)=C(CO)C1=O
- T/C (dose: 30.0 mg/kg/injection, schedule: Q01DX005 (ip), vehicle: saline): 105 % of control
- T/C [15]: 103 % of control and 108 % of control
- T/C [16]: 117 % of control and 120 % of control

Structure (SMILES): C=C1C(=O)O[C@H]2CC3=CCC[C@H](C)[C@@]3(C)C[C@@H]12
- T/C (dose: 2.25 mg/kg/injection, schedule: Q01DX005 (ip), vehicle: Klucel (hydroxypropylcellulose) (HPC)): 100 % of control
- T/C (dose: 4.5 mg/kg/injection, schedule: Q01DX005 (ip), vehicle: Klucel (hydroxypropylcellulose) (HPC)): 96 % of control
- T/C (dose: 9.0 mg/kg/injection, schedule: Q01DX005 (ip), vehicle: Klucel (hydroxypropylcellulose) (HPC)): 99 % of control
- T/C (dose: 18.0 mg/kg/injection, schedule: Q01DX005 (ip), vehicle: Klucel (hydroxypropylcellulose) (HPC)): 101 % of control
- T/C (dose: 36.0 mg/kg/injection, schedule: Q01DX005 (ip), vehicle: Klucel (hydroxypropylcellulose) (HPC)): 99 % of control

Structure (SMILES): CCOC(=O)C(Cc1ccc(O)cc1)NS(=O)(=O)c1ccc(C)cc1 (stereo unspecified)
- T/C [17]: 98 % of control
- T/C [18]: 100 % of control
- T/C (dose: 200.0 mg/kg/injection, schedule: Q01DX009 (ip), vehicle: saline with Tween-80): 108 % of control

Structure (SMILES): OCC1CSC(=S)N1Cc1ccccc1 (stereo unspecified)
- T/C [12]: 97 % of control
- T/C [13]: 100 % of control
- T/C [14]: 107 % of control

Structure (SMILES): COC(=O)C1CC2CCCCC2C1C(=O)OC (stereo unspecified)
- T/C [1]: 89 % of control
- T/C [2]: 87 % of control
- T/C [3]: 89 % of control

Structure (SMILES): O=[N+]([O-])c1cc(Cl)c(Cl)cc1[N+](=O)[O-]
- T/C [17]: 98 % of control
- T/C [18]: 111 % of control

Structure (SMILES): CC1(C)N=C(N)N=C(N)N1c1cccc(CCC(=O)Nc2ccc(S(=O)(=O)F)cc2)c1
- T/C (dose: 18.8 mg/kg/injection, schedule: Q01DX009 (ip), vehicle: saline with Tween-80): 116 % of control and 118 % of control
- T/C (dose: 37.5 mg/kg/injection, schedule: Q01DX009 (ip), vehicle: saline with Tween-80): 115 % of control and 118 % of control
- T/C (dose: 150.0 mg/kg/injection, schedule: Q01DX009 (ip), vehicle: saline with Tween-80): 107 % of control

Structure (SMILES): CC(C)N1CC(=O)N2CSCC2C1=O (stereo unspecified)
- T/C [15]: 105 % of control
- T/C [16]: 105 % of control
- T/C (dose: 240.0 mg/kg/injection, schedule: Q01DX005 (ip), vehicle: saline): 105 % of control

Structure (SMILES): CC(NC(=O)OCc1ccccc1)C(=O)NCC(=O)OCc1ccccc1 (stereo unspecified)
- T/C [7]: 100 % of control
- T/C [8]: 98 % of control
- T/C [9]: 104 % of control

Structure (SMILES): CN(C)c1ccc(C2Sc3ccccc3S2)cc1
- T/C (dose: 100.0 mg/kg/injection, schedule: Q01DX001 (ip), vehicle: Klucel (hydroxypropylcellulose) (HPC)): 97 % of control
- T/C (dose: 200.0 mg/kg/injection, schedule: Q01DX001 (ip), vehicle: Klucel (hydroxypropylcellulose) (HPC)): 95 % of control
- T/C (dose: 400.0 mg/kg/injection, schedule: Q01DX001 (ip), vehicle: Klucel (hydroxypropylcellulose) (HPC)): 97 % of control

Structure (SMILES): O=C(NCCN1CCCCC1)c1ccc(Cl)cc1Cl
- T/C [10]: 101 % of control
- T/C [11]: 98 % of control
